In patent US7662842B2, “Thiazolidinone amides, thiazolidine carboxylic acid amides, and serine amides, including polyamine conjugates thereof, as selective anti-cancer agents” (Ohio State Univesity Research Foundation, priority 2003, dated 2010):
pIC50: −log10 of the molar value.

Legend:
Type in all cases: cell-based
[1] = tested on: RH7777 rat hepatoma cells; assay: SRB cytotoxicity assay, RH7777 control cell line; details: SRB assay, 96 h exposure; control cell line
Description: (§1) For in vitro cytotoxicity screening, 1000 to 5000 cells were plated into each well of 96-well plates depending on growth rate, and exposed to different concentrations of a test compound for 96 h in three to five replicates. All the compounds were dissolved in dimethyl sulfoxide at 5 to 20 mM, and diluted to desired concentrations in complete culture medium. Cell numbers at the end of the drug treatment were measured by the SRB assay (Gududuru et al., “Synthesis and Biological Evaluation of Novel Cytotoxic Phospholipids for Prostate Cancer,” Bioorg. Med. Chem. Lett. 14:4919-4923 (2004); Rubinstein et al., “Comparison of in vitro Anticancer-Drug-Screening Data Generated with a Tetrazolium Assay Versus a Protein Assay Against a Diverse Panel of Human Tumor Cell Lines,” J. Natl. Cancer Inst. 82:1113-1118 (1990), each of which is hereby incorporated by reference in its entirety). Briefly, the cells were fixed with 10% of trichloroacetic acid, stained with 0.4% SRB, and the absorbances at 540 nm was measured using a plate reader (DYNEX Technologies, Chantilly, Va.). […] A sandwich ELISA (Roche, Mannheim, Germany) utilizing monoclonal antibodies specific for DNA and histones was used to quantify degree of apoptosis induced by the analogs after 72 h exposure. This assay measures DNA-histone complexes (mono- and oligonucleosomes) released into cytoplasm from the nucleus during apoptosis.

[2] = tested on: DU-145 human prostate cancer cells; assay: SRB cytotoxicity assay, DU-145; details: read-out: IC50 DU-145, 96 h exposure, prostate cancer cell line
Description: as §1

[3] = tested on: PC-3 human prostate cancer cells; assay: SRB cytotoxicity assay, PC-3; details: 96 h exposure, prostate cancer cell line
Description: as §1

[4] = tested on: LNCaP human prostate cancer cells; assay: SRB cytotoxicity assay, LNCaP; details: 96 h exposure, prostate cancer cell line
Description: as §1

[5] = tested on: PPC-1 human prostate cancer cells; assay: SRB cytotoxicity assay, PPC-1; details: 96 h exposure, prostate cancer cell line
Description: (§2) Dr. Mitchell Steiner at University of Tennessee Health Science Center, kindly provided PPC-1 and TSU-Pr1 cells.
as §1

[6] = tested on: TSU-Pr1 human prostate cancer cells; assay: SRB cytotoxicity assay, TSU-Pr1; details: 96 h exposure, prostate cancer cell line
Description: as §2, §1

[7] = tested on: human breast cancer cell line (MCF-7); assay: SRB cytotoxicity assay, MCF-7; details: SRB assay
Description: as §1
In vitro cytotoxicity assay was performed by the same sulforhodamine B (SRB) assay (described above). The compounds shown in Table 8 below where tested for activity against the breast cancer and ovarian cancer cell lines.
RH7777 and CV-1 cells were used as negative controls and MCF-7 cell line (breast cancer) was included to examine the selectivity.

[8] = tested on: CV-1 cells; assay: SRB cytotoxicity assay, CV-1 control cell line
Description: For in vitro cytotoxicity screening, 1000 to 5000 cells were plated into each well of 96-well plates depending on growth rate, and exposed to different concentrations of a test compound for 96 h in three to five replicates. All the compounds were dissolved in dimethyl sulfoxide at 5 to 20 mM, and diluted to desired concentrations in complete culture medium. Cell numbers at the end of the drug treatment were measured by the SRB assay (Gududuru et al., “Synthesis and Biological Evaluation of Novel Cytotoxic Phospholipids for Prostate Cancer,” Bioorg. Med. Chem. Lett. 14:4919-4923 (2004); Rubinstein et al., “Comparison of in vitro Anticancer-Drug-Screening Data Generated with a Tetrazolium Assay Versus a Protein Assay Against a Diverse Panel of Human Tumor Cell Lines,” J. Natl. Cancer Inst. 82:1113-1118 (1990), each of which is hereby incorporated by reference in its entirety). Briefly, the cells were fixed with 10% of trichloroacetic acid, stained with 0.4% SRB, and the absorbances at 540 nm was measured using a plate reader (DYNEX Technologies, Chantilly, Va.). […] A sandwich ELISA (Roche, Mannheim, Germany) utilizing monoclonal antibodies specific for DNA and histones was used to quantify degree of apoptosis induced by the analogs after 72 h exposure. This assay measures DNA-histone complexes (mono- and oligonucleosomes) released into cytoplasm from the nucleus during apoptosis. RH7777 cells were employed because of nonspecific cytotoxicity of compound 4 in receptor-negative cells as well as receptor-positive prostate cancer cells.
RH7777 and CV-1 cells were used as negative controls and MCF-7 cell line (breast cancer) was included to examine the selectivity. 5-Fluorouracil was used as reference drug.

[9] = tested on: five human prostate cancer cell lines (DU-145, PC-3, LNCaP, PPC-1, and TSU-Pr1); assay: SRB assay, statements on the panel of prostate cancer cell lines
Description: Cell numbers at the end of the drug treatment were measured by the SRB assay (Gududuru et al., “Synthesis and Biological Evaluation of Novel Cytotoxic Phospholipids for Prostate Cancer,” Bioorg. Med. Chem. Lett. 14:4919-4923 (2004); Rubinstein et al., “Comparison of in vitro Anticancer-Drug-Screening Data Generated with a Tetrazolium Assay Versus a Protein Assay Against a Diverse Panel of Human Tumor Cell Lines,” J. Natl. Cancer Inst. 82:1113-1118 (1990), each of which is hereby incorporated by reference in its entirety). Briefly, the cells were fixed with 10% of trichloroacetic acid, stained with 0.4% SRB, and the absorbances at 540 nm was measured using a plate reader (DYNEX Technologies, Chantilly, Va.). […] A sandwich ELISA (Roche, Mannheim, Germany) utilizing monoclonal antibodies specific for DNA and histones was used to quantify degree of apoptosis induced by the analogs after 72 h exposure. This assay measures DNA-histone complexes (mono- and oligonucleosomes) released into cytoplasm from the nucleus during apoptosis. […] EDG-ology of Liver Injury,” Biochimica et Biophysica ACT 1582:251-256 (2002), which is hereby incorporated by reference in its entirety) was also utilized to understand whether the antiproliferative activity of these derivatives is mediated through inhibition of LPL receptors.

[10] = tested on: SKMEL-188 melanoma cells; assay: Sulforhodamine B assay in melanoma cells, SKMEL-188; details: SK-MEL-188, 48 h, SRB assay, 48 h incubation; melanoma cell line
Description: (§3) SKMEL-188 cells were cultured in Ham's F10 medium (Gibco Invitrogen, Inc., Grand Island, N.Y.) plus 5% fetal bovine serum (Cellgro Mediatech, Inc., Herndon, Va.) and 1% antibiotic/antimycotic mixture (Sigma-Aldrich, Inc., St. Louis, Mo.). WM-164 cells (gift of Dr. Meenhard Herlyn, Wistar Inst., Philadelphia, Pa.) and human dermal fibroblasts (Cascade Biologics, Inc., Portland, Oreg.) were cultured in DMEM medium (Cellgro Mediatech, Inc.) supplemented with 5% fetal bovine serum, 1% antibiotic.antimycotic mixture and bovine insulin ([…], Sigma-Aldrich, Inc.). Human dermal fibroblasts were used as a control to examine the effects of compounds on stromal environment. Thus, the effect of the various compounds on melanoma cells versus fibroblasts would document their potential selectivity.
(§4) Sulforhodamine B Assay: Cells were seeded into 96-well plates at 5000 cells/well. After 12 hours, media were changed and serial dilutions of compounds were added. Cells were incubated with each compound for 48 hours. Fresh media containing the test compound were changed ever 24 hours. Thereafter, total cell protein corresponding to cell numbers (both viable and non-viable cells) were measured using the sulforhodamine B (SRB) assay according to manufacturer's protocol (Sigma-Aldrich, Inc.) (Rubinstein et al., “Comparison of in vitro Anticancer Drug-screening Data Generated with a Tetrazolium Assay Versus a Protein Assay Against a Diverse Panel of Human Tumor Cell Lines,” J. Natl. Cancer Inst. 82:1113-1118 (1990); Dothager et al., “Synthesis and Identification of Small Molecules that Potently Induce Apoptosis in Melanoma Cells Through GI Cell Cycle Arrest,” J. Am. Chem. Soc. 127:8686-8696 (2005), each of which is hereby incorporated by reference in its entirety). Briefly, cells were fixed with trichloracetic acid, washed and incubated with sulforhodamine B for 30 minutes. After another wash, dye incorporated into the cells was solubilized and measured using a plate reader at 565 nm.
(§5) Statistical Analysis: Data is presented as mean±SEM (n=6-8). […] Statistical analyses were performed with Student's t-test (*p<0.05; **p<0.005).
(§6) DTIC and Taxol were assayed in the same way for comparison and served as internal quality controls in the different batches of assay. For comparison, the activities of 5R and 5S were measured.

[11] = tested on: WM-164 cells; assay: Sulforhodamine B assay in melanoma cells, WM-164; details: Homo sapiens, WM164, read-out: IC50 WM-164; SRB assay, 48 h incubation; melanoma cell line
Description: as §3, §4, §5, §6

[12] = tested on: SKMEL-188 and WM-164 cell lines; assay: SRB assay, statements on both melanoma cell lines
Description: Louis, Mo.). WM-164 cells (gift of Dr. Meenhard Herlyn, Wistar Inst., Philadelphia, Pa.) and human dermal fibroblasts (Cascade Biologics, Inc., Portland, Oreg.) were cultured in DMEM medium (Cellgro Mediatech, Inc.) supplemented with 5% fetal bovine serum, 1% antibiotic.antimycotic mixture and bovine insulin ([…], Sigma-Aldrich, Inc.). Human dermal fibroblasts were used as a control to examine the effects of compounds on stromal environment. Thus, the effect of the various compounds on melanoma cells versus fibroblasts would document their potential selectivity. Sulforhodamine B Assay: Cells were seeded into 96-well plates at 5000 cells/well. After 12 hours, media were changed and serial dilutions of compounds were added. Cells were incubated with each compound for 48 hours. Fresh media containing the test compound were changed ever 24 hours. Thereafter, total cell protein corresponding to cell numbers (both viable and non-viable cells) were measured using the sulforhodamine B (SRB) assay according to manufacturer's protocol (Sigma-Aldrich, Inc.) (Rubinstein et al., “Comparison of in vitro Anticancer Drug-screening Data Generated with a Tetrazolium Assay Versus a Protein Assay Against a Diverse Panel of Human Tumor Cell Lines,” J. Natl. Cancer Inst. 82:1113-1118 (1990); Dothager et al., “Synthesis and Identification of Small Molecules that Potently Induce Apoptosis in Melanoma Cells Through GI Cell Cycle Arrest,” J. Am. Chem. Soc. 127:8686-8696 (2005), each of which is hereby incorporated by reference in its entirety). Briefly, cells were fixed with trichloracetic acid, washed and incubated with sulforhodamine B for 30 minutes. After another wash, dye incorporated into the cells was solubilized and measured using a plate reader at 565 nm. Statistical Analysis: Data is presented as mean±SEM (n=6-8). […] Statistical analyses were performed with Student's t-test (*p<0.05; **p<0.005). […] DTIC and Taxol were assayed in the same way for comparison and served as internal quality controls in the different batches of assay. For comparison, the activities of 5R and 5S were measured.

[13] = tested on: human dermal fibroblasts; assay: Sulforhodamine B assay, fibroblast control cells; details: Homo sapiens, Fibroblast, 48 h, SRB assay, 48 h incubation
Description: as §3, §4, §5, §6

SMILES | pIC50 [1] | pIC50 [2] | pIC50 [3] | pIC50 [4] | pIC50 [5] | pIC50 [6] | pIC50 [7] | pIC50 [8] | pIC50 [9] | pIC50 [10] | pIC50 [11] | pIC50 ([12]; 48 h, read-out: IC50 against both melanoma cell lines) | pIC50 [13] | Killing of melanoma cells (cytostatic versus cytotoxic) ([12]; higher concentrations)
COc1cc(C2NC(C(=O)NCCCCN)CS2)cc(OC)c1OC (mixture of isomers) [Compound 222] | < 4.00 | < 4.00 | < 4.00 | < 4.00 | < 4.00 | < 4.00 | < 4.00 | < 4.00 | < 4.00 |  |  |  |  | 
COc1cc(C2NC(C(=O)NCCCNCCCCN)CS2)cc(OC)c1OC (mixture of isomers) [Compound 223] | < 4.00 | < 4.00 | < 4.00 | < 4.00 | < 4.00 | < 4.00 | < 4.00 | < 4.00 | < 4.00 |  |  |  |  | 
NCCCCNC(=O)C(N)CO (stereo not shown) [Compound 214] | < 4.00 | < 4.00 | < 4.00 | < 4.00 | < 4.00 | < 4.00 | < 4.00 | < 4.00 | < 4.00 |  |  |  |  | 
NCCCCNCCCNC(=O)C(N)CO (stereo not shown) [Compound 215] | < 4.00 | < 4.00 | < 4.00 | < 4.00 | < 4.00 | < 4.00 | < 4.00 | < 4.00 | < 4.00 |  |  |  |  | 
NCCCCNC(=O)CN1C(=O)CSC1c1ccccc1 (stereo not shown) [Compound 218] | < 4.00 | < 4.00 | < 4.00 | < 4.00 | < 4.00 | < 4.00 | < 4.00 | < 4.00 | < 4.00 |  |  |  |  | 
NCCCCNCCCNC(=O)CN1C(=O)CSC1c1ccccc1 (stereo not shown) [Compound 219] | < 4.00 | < 4.00 | < 4.00 | < 4.00 | < 4.00 | < 4.00 | < 4.00 | < 4.00 | < 4.00 |  |  |  |  | 
CN(C)/N=N/c1[nH]cnc1C(N)=O [DTIC, dacarbazine, reference compound] |  |  |  |  |  |  |  |  |  | < 4.00 | < 4.00 | < 4.00 |  | 
CC(=O)O[C@H]1C(=O)[C@@]2(C)[C@H]([C@H](OC(=O)c3ccccc3)[C@]3(O)C[C@H](OC(=O)[C@H](O)[C@@H](NC(=O)c4ccccc4)c4ccccc4)C(C)=C1C3(C)C)[C@]1(OC(C)=O)CO[C@@H]1C[C@@H]2O [Taxol, reference compound] |  |  |  |  |  |  |  |  |  | 5.42 | 5.21 |  | < 5.00 | not effective in killing the cells
